Results taken from patent US20080207521A1, “PEPTIDE LIGAND TO IMPAIR CANCER CELL MIGRATION” (priority 2005, published 2008).

Experiments:
Type in all cases: cell-based, human
[1] = tested on: Wnt-5a antisense HB2 cells; assay: Adhesion of Wnt-5a antisense HB2 cells to collagen I (MTS); details: for adhesion to collagen I, concentration-dependent analysis: 95% pure peptides, different concentrations
Protocol: (§1) The adhesion assay was carried out as previously described (12). Briefly, cells were serum-depleted for 16 h, detached with Versene and allowed to adhere as single cells to collagen I for 60 (MDA-MB-468) or 90 min (HB2) at 37° C. Non-adherent cells were removed by washing with PBS. The adherent cells were incubated with a (3-(4,5-dimethylthiazol-2-yl)-5-(3-carboxymethoxyphenyl)-2-(-4-sulfophenyl)-2H-tetrazolium, inner salt (MTS) dye reduction assay (Promega, Madison, Wis.) and absorbance was measured at 490 nm using a Fluostar microplate reader from BMG LabTechnologies (GmbH, Offenberg, Germany). In each experiment a single value was calculated based on the mean of adhesion from six separate wells after the adhesion to plastic alone had been subtracted. The CM used as a control in the adhesion assays was obtained from confluent Wnt-5a overexpressing HB2 cells (for experiments with Wnt-5a antisense HB2 cells) or Wnt-5a overexpressing MCF-7 cells (for MDA-MB-468 cells) stably transfected with a vector over-expressing Wnt5a. A collected CM was always used within three days.
To control the specificity of the CM, it was incubated with either the Wnt-5a or a control Ab for 45 min at 37° C. Subsequently 10 μl Protein A Sepharose was added for 30 min and after the protein A-bound antibodies were collected by centrifugation the remaining supernatants were used for the experiments.
Effects of crude peptides on adhesion of Wnt-5a antisense HB2 cells to collagen. (A) Single cells were allowed to adhere for 90 min in the absence or presence of the indicated crude peptides (100 μM). The amounts of adhesive cells were analyzed as described in the methods and the results are given as means±SEM of 7 separate experiments. (B) Adhesion of Wnt-5a antisense HB2 cells to collagen was analyzed after pre-treating the cells with an anti-[…]1-integrin Ab for 45 min before letting them adhere for 90 min in the absence or presence of peptides 171 or 175 (100 μM) or CM. The amounts of adhesive cells were analyzed as described in the methods and the results are given as means±SEM of 6 separate experiments (C) The diagram outlines a control of the presently used CM. The cells were allowed to adhere to collagen I-coated wells in the absence or presence of normal CM or Wnt-5a depleted CM. The amounts of adhesive cells were analyzed as described in the methods and the results are given as means±SEM of 6 separate experiments. Ns=not significant, * p<0.05, ** p<0.01 and *** p<0.001.
Effects of the selected and pure peptides on the ability of Wnt-5a antisense HB2 cells to adhere and migrate. (A-E) The ability of the cells to adhere to collagen type I-coated wells was analyzed as previously described for FIG. 2 in the absence or presence of different concentrations of the indicated peptide. (F) Effect of the indicated peptides on migration of Wnt-5a antisense HB2 in a transwell migration assay. The cells were allowed to migrate for 18 h in the absence or presence of 100 μM peptide or 0.4 μg/ml of recombinant Wnt5a. The data are given as means±SEM of 6-7 separate experiments, each performed in triplicate. * p<0.05 and ** p<0.01.

MDA-MB-468 cells = assay: Adhesion of MDA-MB-468 breast cancer cells to collagen I (MTS); details: pure peptide 100 μM; 60 min
Protocol: as §1
Peptide-induced effects on adhesion and DDR1 phosphorylation in MDA-MB-468 breast cancer cells. (A) Western blot analysis of Wnt-5a protein expression in Wnt-5a antisense and Wnt-5a over-expressing HB2 cells in comparison to MDA-MB-468 tumour cells. The blot is representative of 9 separate experiments. (B) Peptide-induced effects on MDA-MB-468 tumour cell adhesion. The cells were allowed to adhere to collagen type I-coated wells for 60 min in the absence or presence of 100 μM of the indicated peptides or CM. The amounts of adhesive cells were analyzed as described in the methods and the results are given as means±SEM of 8 separate experiments. (C) MDA-MB-468 cell adhesion to collagen I-coated wells in the absence or presence of peptide 175 or a peptide with same amino acid sequence except for a substitution of cysteine for alanine (175Ala) or CM. The amount of adherent cells was estimated as in panel A and expressed as means±SEM of 6 separate experiments, ns=not significant, ** p<0.01 and *** p<0.001. (D) Single MDA-MB-468 cells were allowed to adhere to collagen I-coated plates for 60 min in the absence or presence of the indicated peptides (100 μM), CM or recombinant Wnt-5a (0.8 µg/ml). DDR1 immunoprecipitates were Western blotted with first an anti-phosphotyrosine Ab and then after stripping with an anti-DDR1 Ab. The blots shown are representative of 6 separate experiments.
Effects of peptide 175 modifications on its ability to induce MDA-MB-468 tumour cell adhesion and migration. (A) The cells were allowed to adhere for 60 min to collagen-I coated wells in the absence or presence of peptide 175, three stepwise N-terminal deletion variants of peptide 175 or a formylated version of the tested hexapeptide derived from peptide 175. The amounts of adhesive cells were analyzed as described in the methods and the results are given as means±SEM of 6 separate experiments. (B and C) The cells were allowed to migrate for 18 h in the absence or presence of 1 or 10 μM of peptide 175 (B) or the formylated hexapeptide (C). The data are given as means±SEM of 6 separate experiments, each performed in triplicate. * p<0.05, p<0.01.

[2] = tested on: filamentous actin (F-actin); assay: F-actin content of MDA-MB-468 cells (AlexaFluor 488 phalloidin fluorescent microscopy); details: peptide 100 μM; 18 h; compared to untreated cells
Protocol: MDA-MB-468 cells were detached from the tissue culture dishes by incubation with Versene for 10 min at 37° C., washed, re-suspended as single cells in serum-free DMEM medium supplemented with 0.5% BSA with or without peptide 175 (100 μM), and plated on a cover glass, pre-coated with 10 µg/ml collagen-I, in a cell culture dish. These experiments were terminated after 18 h by fixing the cells with 4% paraformaldehyde for 10 min at 4° C.
The cells were then permeabilized by incubation with 0.5% Trition X-100 for 5 min and blocked by incubation with a 3% BSA solution supplemented with 0.3% Triton X-100 for 45 min. The staining of the cells was performed in the dark by incubation for 40 min with AlexaFluor® 488 phalloidin (Molecular Probes, Eugene, Oreg.) at a dilution of 1:500 and in the presence of 1% BSA. Thereafter the cells were extensively washed and finally mounted with Dako Cytomation fluorescent mounting medium. The samples were examined and photographed in a Nikon Eclipse 800 microscope using a 60× oil immersion objective.
Peptide-induced effects on MDA-MB-468 tumour cell migration and their content of F-actin. (A) The cells were allowed to migrate for 18 h in the absence or presence of the indicated peptides (100 μM) The data in panel A are expressed as means±SEM of 8 separate experiments, each performed in triplicate. * p<0.05. […]

| Sequence | adhesion to collagen I, concentration-dependent analysis [1] | adhesion to collagen I (MDA-MB-468 cells) | cellular content of filamentous actin (F-actin) [2] | adhesion to collagen after pre-treatment with blocking anti-β1-integrin Ab ([1]; anti-β1-integrin Ab 45 min at 37° C., peptide 100 μM, 90 min) | adhesion to collagen I ([1]; crude peptide (65% pure) 100 μM, 90 min) |
| --- | --- | --- | --- | --- | --- |
| ADFRKVGDALKEKYD [peptide 169, Wnt-5a aa 242-256] | increased when tested at higher purity | significantly increased | – | – | – |
| NKTSEGMDGCEL (Human) [peptide 175, Wnt-5a aa 311-322] | most effective | significantly increased | significantly higher cellular content of filamentous actin | – | – |
| SQLAGLSQGQKKL [peptide 171, Wnt-5a aa 55-67; negative control] | lost or less consistent | – | – | most likely β1-integrin-dependent | significant effect on adhesion |
